Usually melting point stands for the temperature, or range, at which the solid turns liquid.

This is an account of results in patent US11021490B2, “Pyridinium oxazole dyad scaffold and a process for preparation thereof” (COUNCIL OF SCIENTIFIC AND INDUSTRIAL RESEARCH, priority 2016, dated 2021).

A short description of series [1]: Spectral (photophysical) properties of representative derivatives in DCM at room temperature. To be noted: for ΔStokes (Stokes shift=λem−λabs) / λabs (maximum absorption band more than 300 nm) / λem (excited at the longest maximum absorption band) / λex (excited wavelength) / τf (fluorescent lifetime) / ϕf (quantum yield): DCM, RM, 10−5M; for ϕf (quantum yield): quinine sulfate and rhodamine 6G as standard; for Effect of substituent on the fluorescent properties / emission: CH2Cl2 at RT. More on the design: τf (fluorescent lifetime): unit not given here. The series is classed as physicochemical. The text has this: The photo-physical properties of representative salts are studied in CH2Cl2 at RT (FIG. 1).
The corresponding absorption, emission and excitation, spectra are depicted in FIGS. 3, 4 and 5. […] The compounds display good quantum yields upto 0.76.
a The maximum absorption bands more than 300 nm; b Excited at the longest maximum absorption band in CH2Cl2; ^cExcited wavelength; ^dStokes shift=λem−λabs; ^eQuinine sulfate and rhodamine 6G was used as the standard; ^fFluorescent lifetime
The current invention provides compounds that display brightly fluorescence as well as a good ϕf. The salts are a novel class of fluorescent materials that contain a pyridinium-oxazole functional group and the photo-physical properties of representative salts are studied in CH2Cl2 at RT The absorption and excitation maxima, the photoluminescence (PL) maxima and quantum yields (FF), as well as the excited state lifetimes (tf) of these compounds in CH2Cl2 solution are listed in Tables 3, whereas the corresponding absorption, emission, excitation spectra are depicted in FIGS. 3, 4 and 5. […] These observations are indicative of a predominant π-π* character for the lowest excited state, and the life time tf values are consistent with a singlet multiplicity. Most of these compounds display good quantum yields upto 0.76 (3n). The radiative rate constants are barely affected by the substitution pattern, an indication of the similar excited state character for all compounds.

In series [2] the test system is MCF-7 cells. As to the kind of experiment: Localization and staining of mitochondria in living MCF-7 cells by fluorescence microscopy, with MitoTracker Green costaining. To be noted: 1 μM, 1 h. Format: cell-based. The procedure:
MCF-7 cells were obtained from National Centre for Cell Science, Pune, India. For bio imaging purpose, the cells were seeded in a 6 well plate at a density of 10^5 cells/mL in Dulbecco's Modified Eagle's Medium+Ham's F12 containing 10% fetal bovine serum and a 0.1% antibiotic solution for 24 h at […] and 5% CO2 for adherence
MCF-7 cells (1×10^4 cells/mL/well) were seeded in a 6-well tissue culture plate for 48 h. The cells were then treated with 1 μM concentration of different organic molecules for 30 minutes. After thorough washing with 1×PBS (P^H 7.4), the cells are fixed used paraformaldehye (4% in PBS) for 15 minutes. Then cells were washed using 1×PBS twice. Further cells are permeated using 0.4% triton X in PBS for 30 seconds followed by treatment with 1 μg/mL of DAPI solution for 15 minutes. The cells are again ished twice with 1×PBS (P^H 7.4). Finally, a confocal fluorescence microscope (Nikon Eclipse: TE 2000-E, Japan). Bioimaging studies are carried out using red and green filters. (FIG. 2)
Cells are cultured and maintained as described above. Cells were treated with 1 μM compound for 30 min followed by washing with PBS. Further cells were treated with […] MG for 10 min and then washed with PBS. Cells were fixed and treated with DAPI as described above.
MCF-7 cells were incubated with 1 μM of 3n for 1 h, and excess dyes were washed away by buffer solution.

The molecule `F[B-](F)(F)F.Fc1ccc2c(c1)-c1cccc3oc(-c4ccccc4)c-2[n+]13` showed a melting point of 255 to 256 °C.

Turning to `Clc1ccc(-c2oc3cccc4[n+]3c2-c2ccccc2-4)cc1.F[B-](F)(F)F` [3m, 1-(4-chlorophenyl)benzo[a]oxazolo[4,3,2-cd]indolizin-10-ium tetrafluoroborate], the melting point fell in the range of 274 to 275 °C. In series [1], the “ΔStokes (Stokes shift=λem−λabs)” value is reported as 040 nm, the “λabs (maximum absorption band more than 300 nm)” value came to 370 nm, the “λem (excited at the longest maximum absorption band)” value amounted to 410 nm and the “λex (excited wavelength)” value was determined as 339 nm. Further, in series [1], the “τf (fluorescent lifetime)” value turned out to be 1.7 and the “ϕf (quantum yield)” value is recorded as 0.19.

`Clc1cccc(-c2oc3cccc4[n+]3c2-c2ccccc2-4)c1.F[B-](F)(F)F` had a melting point of 204 to 206 °C.

The molecule `COc1ccc(Cl)c(-c2cc3ccccc3c3cccc(=O)n23)c1` [3y″, 6-(2-chloro-5-methoxyphenyl)-4H-pyrido[2,1-a]isoquinolin-4-one] registered a melting point of 186 to 187 °C.

Turning to `Clc1ccc2c(c1)-c1cccc3oc(-c4ccccc4)c-2[n+]13.F[B-](F)(F)F`, the melting point lay in the range of 208 to 210 °C.

In turn, `Cc1ccc(/C=c2\c3ccccc3c3cccc(=O)n23)cc1Cl` [3z″, (E)-6-(3-chloro-4-methylbenzylidene)pyrido[2,1-a]isoindol-4(6H)-one] returned a melting point of 194 to 195 °C.

With `COc1ccc(-c2oc3cccc4[n+]3c2-c2ccccc2-4)cc1.F[B-](F)(F)F` [3j, 1-(4-methoxyphenyl)benzo[a]oxazolo[4,3,2-cd]indolizin-10-ium tetrafluoroborate], the melting point was 190 to 192 °C. Also, in series [1], the “Effect of substituent on the fluorescent properties / emission” value is listed as “only a modest effect on the fluorescent properties”, the “ΔStokes (Stokes shift=λem−λabs)” value worked out at 053 nm, the “λabs (maximum absorption band more than 300 nm)” value amounted to 405 nm and the “λem (excited at the longest maximum absorption band)” value was found to be 458 nm. In series [1], the “λex (excited wavelength)” value came out at 338 nm, the “τf (fluorescent lifetime)” value was determined as 2.4 and the “ϕf (quantum yield)” value is 0.42.

With `Clc1ccc2c(c1)-c1c(-c3ccccc3)oc3cccc-2[n+]13.F[B-](F)(F)F`, the melting point lay within 206 to 208 °C.

With `CC(C)c1ccc(-c2oc3cccc4[n+]3c2-c2ccccc2-4)cc1.F[B-](F)(F)F`, the melting point lay in the range of 214 to 215 °C.

For `CCCCOc1ccc(-c2oc3cccc4[n+]3c2-c2ccccc2-4)cc1.F[B-](F)(F)F`, the melting point was in the range of 183 to 185 °C.

`Cc1ccc(-c2oc3cccc4[n+]3c2-c2ccccc2-4)cc1.F[B-](F)(F)F`: the melting point is 222 to 223 °C.

`CN(C)c1ccc(-c2oc3cccc4[n+]3c2-c2ccccc2-4)cc1.F[B-](F)(F)F` [3n, 1-(4-(dimethylamino)phenyl)benzo[a]oxazolo[4,3,2-cd]indolizin-10-ium tetrafluoroborate]: the melting point was 242 to 244 °C. In series [1], the “ΔStokes (Stokes shift=λem−λabs)” value turned out to be 049 nm, the “λabs (maximum absorption band more than 300 nm)” value is given as 506 nm, the “λem (excited at the longest maximum absorption band)” value is listed as 555 nm and the “λex (excited wavelength)” value is given as 511 nm. Further, in series [1], the “τf (fluorescent lifetime)” value was found to be 9.1 and the “ϕf (quantum yield)” value came to 0.76. In addition, in series [2], the “Staining / localization in mitochondria” value is “stains specifically the mitochondrial region”.

Turning to `COc1ccccc1-c1oc2cccc3[n+]2c1-c1ccccc1-3.F[B-](F)(F)F`, the melting point lay in the range of 228 to 229 °C.

Consider `F[B-](F)(F)F.Fc1ccc(-c2oc3cccc4[n+]3c2-c2ccccc2-4)cc1` [3l, 1-(4-fluorophenyl)benzo[a]oxazolo[4,3,2-cd]indolizin-10-ium tetrafluoroborate], for which the melting point lay within 254 to 255 °C. Also, in series [1], the “Effect of substituent on the fluorescent properties / emission” value is “only a modest effect on the fluorescent properties”, the “ΔStokes (Stokes shift=λem−λabs)” value worked out at 042 nm, the “λabs (maximum absorption band more than 300 nm)” value was 372 nm and the “λem (excited at the longest maximum absorption band)” value is 414 nm. In series [1], the “λex (excited wavelength)” value came to 343 nm, the “τf (fluorescent lifetime)” value is given as 0.9 and the “ϕf (quantum yield)” value is recorded as 0.09.

`CCCCC(=O)c1ccc(-c2oc3cccc4[n+]3c2-c2ccccc2-4)cc1.F[B-](F)(F)F` had a melting point of 202 to 204 °C.

On to `F[B-](F)(F)F.c1ccc(-c2oc3cccc4[n+]3c2-c2ccccc2-4)cc1` [3a, 1-phenylbenzo[a]oxazolo[4,3,2-cd]indolizin-10-ium tetrafluoroborate], for which the melting point lay in the range of 192 to 193 °C. Also, in series [1], the “ΔStokes (Stokes shift=λem−λabs)” value is reported as 036 nm, the “λabs (maximum absorption band more than 300 nm)” value is given as 368 nm, the “λem (excited at the longest maximum absorption band)” value is recorded as 404 nm and the “λex (excited wavelength)” value was 338 nm. In addition, in series [1], the “τf (fluorescent lifetime)” value came out at 1.2 and the “ϕf (quantum yield)” value came to 0.10.

`Cc1cccc2c1-c1cccc3oc(-c4ccccc4)c-2[n+]13.F[B-](F)(F)F`: the melting point lay in the range of 220 to 221 °C.

In turn, `F[B-](F)(F)F.c1ccc2c(c1)-c1cccc3oc(-c4cccc5ccccc45)c-2[n+]13` gave a melting point of 198 to 200 °C.

`Cc1ccc2c(c1)-c1cccc3oc(-c4ccccc4)c-2[n+]13.F[B-](F)(F)F` yielded a melting point of 224 to 226 °C.

`COc1cccc(-c2oc3cccc4[n+]3c2-c2ccccc2-4)c1.F[B-](F)(F)F` [3q, 1-(3-methoxyphenyl)benzo[a]oxazolo[4,3,2-cd]indolizin-10-ium tetrafluoroborate] returned a melting point of 206 to 208 °C. In addition, in series [1], the “ΔStokes (Stokes shift=λem−λabs)” value was 079 nm, the “λabs (maximum absorption band more than 300 nm)” value is listed as 376 nm, the “λem (excited at the longest maximum absorption band)” value is reported as 455 nm and the “λex (excited wavelength)” value came to 332 nm. For the same molecule, in series [1], the “τf (fluorescent lifetime)” value was found to be 2.0 and the “ϕf (quantum yield)” value is recorded as 0.20.

Take `F[B-](F)(F)F.c1ccc2c(c1)-c1cccc3oc(-c4ccc5ccccc5c4)c-2[n+]13` [3c, 1-(naphthalen-2-yl)benzo[a]oxazolo[4,3,2-cd]indolizin-10-iumtetrafluoroborate]: in series [1], the “Effect of substituent on the fluorescent properties / emission” value is “stronger effect on the fluorescent properties”, the “ΔStokes (Stokes shift=λem−λabs)” value is 071 nm, the “λabs (maximum absorption band more than 300 nm)” value is on record as 410 nm and the “λem (excited at the longest maximum absorption band)” value was 481 nm. Moreover, in series [1], the “λex (excited wavelength)” value worked out at 364 nm, the “τf (fluorescent lifetime)” value is 5.2 and the “ϕf (quantum yield)” value is on record as 0.49.

Consider `F[B-](F)(F)F.c1ccc2c(c1)-c1cccc3oc(-c4cc5ccccc5c5ccccc45)c-2[n+]13` [3d, 1-(phenanthren-9-yl)benzo[a]oxazolo[4,3,2-cd]indolizin-10-ium tetrafluoroborate], for which the melting point was in the range of 230 to 232 °C. In series [1], the “Effect of substituent on the fluorescent properties / emission” value is “stronger effect on the fluorescent properties”, the “ΔStokes (Stokes shift=λem−λabs)” value is recorded as 076 nm, the “λabs (maximum absorption band more than 300 nm)” value was 411 nm and the “λem (excited at the longest maximum absorption band)” value came to 487 nm. In series [1], the “λex (excited wavelength)” value amounted to 365 nm, the “τf (fluorescent lifetime)” value is recorded as 7.2 and the “ϕf (quantum yield)” value turned out to be 0.54.
